# ChEMBL document CHEMBL1177653, “Synthesis and antiplasmodial activity of lycorine derivatives” (Bioorg Med Chem, 2010)
# Tested on: Plasmodium falciparum
# Experiment: Antiplasmodial activity against Plasmodium falciparum F32-Tanzania after 48 hrs
row,Structure (SMILES),IC50
1,C=Cc1cccc2c3cc4c(cc3c(=O)n(CC)c12)OCO4,> 100 µM
2,C=Cc1cccc2c1N(C)Cc1cc(OC(=O)CCCCCCCCCCC)c(OC(=O)CCCCCCCCCCC)cc1-2,47 µM
3,CC(=O)Oc1cc2c(cc1OC(C)=O)[C@@H]1[C@H](O)[C@@H](OC(C)=O)C=C3CCN(C2)[C@H]31,8.4 µM
4,CC(=O)O[C@H]1[C@H]2c3cc4c(cc3C(=O)N3CCC(=C[C@@H]1OC(C)=O)[C@H]23)OCO4,> 100 µM
5,C=Cc1cccc2c1N(C)Cc1cc(OC(C)=O)c(OC(C)=O)cc1-2,0.9 µM
6,C=Cc1cccc2c1N(C)Cc1cc(OC)c(OC)cc1-2,12.4 µM
7,CC(=O)Oc1cc2c3c(c1)c1cc4c(cc1c(=O)n3CC2)OCO4,9.2 µM
8,C=Cc1cccc2c1N(CCCC)Cc1cc(OC(C)=O)c(OC(C)=O)cc1-2,0.8 µM
9,CC(=O)O[C@@H]1[C@@H](OC(C)=O)[C@H](O)[C@@]2(O)CCN3C(=O)c4cc5c(cc4[C@H]1[C@H]32)OCO5,> 100 µM
10,CC(=O)O[C@H]1[C@H]2c3cc4c(cc3C(=O)N3CCC(=C[C@@H]1O)[C@H]23)OCO4,> 100 µM
11,C=Cc1cccc2c3cc4c(cc3c(=O)n(CCCC)c12)OCO4,> 100 µM
12,CCC(C)C(=O)O[C@H]1[C@H]2c3cc4c(cc3CN3CCC(=C[C@@H]1OC(=O)C(C)CC)[C@H]23)OCO4 (some centres not stated),0.6 µM
13,C=Cc1cccc2c1N(CCCCCCCCCCC)Cc1cc3c(cc1-2)OCO3,7.4 µM
14,C=Cc1cccc2c1N(C)Cc1cc(O)c(O)cc1-2,1.1 µM
15,C=Cc1cccc2c1N(CCCC)Cc1cc(O)c(O)cc1-2,> 100 µM
16,C=Cc1cccc2c3cc4c(cc3c(=O)n(C)c12)OCO4,> 100 µM
17,C=Cc1cccc2c1N(CCCC)Cc1cc3c(cc1-2)OCO3,9.7 µM
18,CCc1cccc2c1N(C)Cc1cc3c(cc1-2)OCO3,> 100 µM
19,C=Cc1cccc2c1N(C)Cc1cc3c(cc1-2)OCO3,11.3 µM
20,CCCCN1Cc2cc3c(cc2-c2cccc(CC)c21)OCO3,7.4 µM
21,CC(=O)O[C@H]1[C@H]2c3cc4c(cc3CN3CCC(=C[C@@H]1O)[C@H]23)OCO4,0.9 µM
22,C=Cc1cccc2c1N(CC)Cc1cc3c(cc1-2)OCO3,86 µM
23,CC(=O)O[C@H]1[C@H]2c3cc4c(cc3CN3CCC(=C[C@@H]1OC(C)=O)[C@H]23)OCO4,0.26 µM
24,CCC(=O)O[C@H]1[C@H]2c3cc4c(cc3CN3CCC(=C[C@@H]1OC(=O)CC)[C@H]23)OCO4,2.7 µM
25,CC(=O)O[C@H]1[C@H]2c3cc4c(cc3CN3CC[C@@H](C[C@@H]1OC(C)=O)[C@H]23)OCO4,34.8 µM
26,O=C1C=C2CCN3Cc4cc5c(cc4[C@H]([C@@H]1O)[C@@H]23)OCO5,14.7 µM
27,O[C@H]1[C@H]2c3cc4c(cc3CN3CCC(=C[C@@H]1O)[C@H]23)OCO4 [LYCORINE],0.13 µM
